Consider ten compounds from ChEMBL document CHEMBL3822355, “Synthesis and evaluation of substituted 4-(N-benzylamino)cinnamate esters as potential anti-cancer agents and HIV-1 integrase inhibitors” (Bioorg Med Chem Lett, 2016).

Series [1] can be described thus: Cytotoxicity against HEK293 cells assessed as cell viability at 100 uM after 48 hrs by resazurin assay. In kind it is cell-based. The conditions noted are these: human, read-out: Activity.
Another series concerns HeLa. Description: Anti-cancer activity against human HeLa cells assessed as reduction in cell viability after 72 hrs by WST-1 assay. In kind it is functional, cell-based. For orientation: Tetrazolium assays rely on reduction of a dye to a coloured formazan, in cell work by metabolically active cells.
In a further series the test system is MDA-MB-231. The series is described as follows: Anti-cancer activity against human MDA-MB-231 cells assessed as reduction in cell viability after 72 hrs by WST-1 assay. In kind it is functional, cell-based. The conditions noted are these: MDA-MB-231, 72 h.

By IC50 is commonly meant the concentration that inhibits the measured activity by half. Turning to `COC(=O)/C=C/c1ccc(NCc2cc([N+](=O)[O-])ccc2O)cc1`, the viability at 48 h, 100 µM in series [1] was 108%. Also, the 50% inhibitory concentration (IC50) with HeLa came to 16 µM; in the series with MDA-MB-231 it was 17.4 µM.

For `COC(=O)/C=C/c1ccc(NCc2cc(Br)cc(Br)c2O)cc1`, the viability at 48 h, 100 µM in series [1] is 114%. The half-inhibitory concentration (IC50) came to 35.4 µM with HeLa and 11.5 µM in the series with MDA-MB-231.

With `COC(=O)/C=C/c1ccc(NCc2cc(Br)ccc2O)cc1`, the viability at 48 h, 100 µM in series [1] was 98.1%. The 50% inhibitory concentration (IC50) in the series with HeLa was 7.82 µM; with MDA-MB-231, 109 µM.

Take `COC(=O)/C=C/c1ccc(NCc2cccc(OC)c2O)cc1`: the viability at 48 h, 100 µM in series [1] worked out at 114%. In addition, the figures for the 50% inhibitory concentration (IC50) with HeLa and in the series on MDA-MB-231 were 3.04 µM and 73.7 µM, respectively.

Regarding `COC(=O)/C=C/c1ccc(NCc2cc(Cl)cc(Cl)c2O)cc1`, the viability at 48 h, 100 µM in series [1] turned out to be 107%. The 50% inhibitory concentration (IC50) in the series on HeLa was 25.9 µM; in the series on MDA-MB-231 it was 9.61 µM.

For `COC(=O)/C=C/c1ccc(NCc2cc(Cl)ccc2O)cc1`, the viability at 48 h, 100 µM in series [1] turned out to be 92.4%. Moreover, the IC50 with HeLa turned out to be 8.56 µM; with MDA-MB-231, 86.4 µM.

In the case of `COC(=O)/C=C/c1ccc(NCc2ccc(O)c(O)c2)cc1`, the viability at 48 h, 100 µM in series [1] was found to be 114%. For the same compound, the IC50 in the series with HeLa stood at 78.1 µM; in the series with MDA-MB-231, 36.6 µM.

As for `COC(=O)/C=C/c1ccc(NCc2ccccc2O)cc1`, the viability at 48 h, 100 µM in series [1] was 94.4%. The half-inhibitory concentration (IC50) with HeLa turned out to be 7.17 µM; in the series on MDA-MB-231 it was 31.7 µM.

In the case of `COC(=O)/C=C/c1ccc(NCc2cccc(O)c2O)cc1`, the viability at 48 h, 100 µM in series [1] turned out to be 82.3%. The results for the IC50 with HeLa and with MDA-MB-231 were 68.2 µM and 32.6 µM, respectively.

With `CC(=O)O[C@H]1C(=O)[C@@]2(C)[C@H]([C@H](OC(=O)c3ccccc3)[C@]3(O)C[C@H](OC(=O)[C@H](O)[C@@H](NC(=O)c4ccccc4)c4ccccc4)C(C)=C1C3(C)C)[C@]1(OC(C)=O)CO[C@@H]1C[C@@H]2O` [PACLITAXEL], the IC50 in the series with HeLa is 0.0199 µM.
